{"source": "PubChem BioAssay AID1963961", "about": "(Molecular Pharmacology Branch, DTP, NCI, 2024)", "system": "K98450-129-R-PDC multicell spheroids, viability", "test": "Anticancer human tumor K98450-129-R-PDC patient-derived colon adenocarcinoma cell line growth inhibition [PI3K]", "details": "for viability, T/C: stronger effect = lower value", "summary_of_the_method": "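Viability of mixed-cell spheroids was determined after exposure to pairwise combinations, one partner being inavolisib, alpelisib, duvelisib or copanlisib. Highest tested concentration matched clinical Cmax where known and 10 microM where not, descending in half-log steps.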", "note": "Several values for one entry are separate records, joined by “and”; a condition that tells them apart may be missing. Identical values can stand only once.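 Also: spheroids exposed to agents for seven days before read-out.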"}
{"smiles": "CC(Nc1ccc2c(c1)OCCn1cc(N3C(=O)OCC3C(F)F)nc1-2)C(N)=O", "note": "(stereo unspecified)", "values": [{"measurement": "viability, T/C", "setting": "compound 0.00316 µM", "result": "107% [middle of 8 runs]"}, {"measurement": "viability, T/C", "setting": "compound 0.01 µM", "result": "106% [middle of 8 runs]"}, {"measurement": "viability, T/C", "setting": "compound 0.0316 µM", "result": "106% [middle of 8 runs]"}, {"measurement": "viability, T/C", "setting": "compound 0.1 µM", "result": "105% [middle of 8 runs]"}, {"measurement": "viability, T/C", "setting": "compound 0.316 µM", "result": "105% [middle of 8 runs]"}, {"measurement": "viability, T/C", "setting": "compound 1 µM", "result": "92.3% [middle of 8 runs]"}, {"measurement": "IC50", "setting": "compound alone, run of 04/24/2023", "result": "> 1", "unit": "µM"}]}
{"smiles": "CC(C)NCC(C(=O)N1CCN(c2ncnc3c2C(C)CC3O)CC1)c1ccc(Cl)cc1", "note": "(stereo unspecified) + Cc1nc(NC(=O)N2CCCC2C(N)=O)sc1-c1ccnc(C(C)(C)C(F)(F)F)c1", "values": [{"measurement": "IC50", "setting": "curve of first compound, second compound 0.0316 µM", "result": "> 10", "unit": "µM"}, {"measurement": "IC50", "setting": "curve of first compound, second compound 0.1 µM", "result": "> 10", "unit": "µM"}, {"measurement": "IC50", "setting": "curve of first compound, second compound 0.316 µM", "result": "> 10", "unit": "µM"}, {"measurement": "IC50", "setting": "curve of first compound, second compound 1 µM", "result": "> 10", "unit": "µM"}, {"measurement": "IC50", "setting": "curve of first compound, second compound 3.16 µM", "result": "> 10", "unit": "µM"}, {"measurement": "IC50", "setting": "curve of first compound, second compound 10 µM", "result": "> 10", "unit": "µM"}, {"measurement": "viability, T/C", "setting": "second compound 0.0316 µM, first compound 0.0316 µM", "result": 104, "unit": "%"}, {"measurement": "viability, T/C", "setting": "second compound 0.0316 µM, first compound 0.1 µM", "result": 99.1, "unit": "%"}, {"measurement": "viability, T/C", "setting": "second compound 0.0316 µM, first compound 0.316 µM", "result": 107, "unit": "%"}, {"measurement": "viability, T/C", "setting": "second compound 0.0316 µM, first compound 1 µM", "result": 104, "unit": "%"}, {"measurement": "viability, T/C", "setting": "second compound 0.0316 µM, first compound 3.16 µM", "result": 100, "unit": "%"}, {"measurement": "viability, T/C", "setting": "second compound 0.0316 µM, first compound 10 µM", "result": 102, "unit": "%"}, {"measurement": "viability, T/C", "setting": "second compound 0.1 µM, first compound 0.0316 µM", "result": 108, "unit": "%"}, {"measurement": "viability, T/C", "setting": "second compound 0.1 µM, first compound 0.1 µM", "result": 98.8, "unit": "%"}, {"measurement": "viability, T/C", "setting": "second compound 0.1 µM, first compound 0.316 µM", "result": 103, "unit": "%"}, {"measurement": "viability, T/C", "setting": "second compound 0.1 µM, first compound 1 µM", "result": 100, "unit": "%"}, {"measurement": "viability, T/C", "setting": "second compound 0.1 µM, first compound 3.16 µM", "result": 103, "unit": "%"}, {"measurement": "viability, T/C", "setting": "second compound 0.1 µM, first compound 10 µM", "result": 99.9, "unit": "%"}, {"measurement": "viability, T/C", "setting": "second compound 0.316 µM, first compound 0.0316 µM", "result": 104, "unit": "%"}, {"measurement": "viability, T/C", "setting": "second compound 0.316 µM, first compound 0.1 µM", "result": 105, "unit": "%"}, {"measurement": "viability, T/C", "setting": "second compound 0.316 µM, first compound 0.316 µM", "result": 104, "unit": "%"}, {"measurement": "viability, T/C", "setting": "second compound 0.316 µM, first compound 1 µM", "result": 95.2, "unit": "%"}, {"measurement": "viability, T/C", "setting": "second compound 0.316 µM, first compound 3.16 µM", "result": 101, "unit": "%"}, {"measurement": "viability, T/C", "setting": "second compound 0.316 µM, first compound 10 µM", "result": 97, "unit": "%"}, {"measurement": "viability, T/C", "setting": "second compound 1 µM, first compound 0.0316 µM", "result": 84.6, "unit": "%"}, {"measurement": "viability, T/C", "setting": "second compound 1 µM, first compound 0.1 µM", "result": 93.1, "unit": "%"}, {"measurement": "viability, T/C", "setting": "second compound 1 µM, first compound 0.316 µM", "result": 96.5, "unit": "%"}, {"measurement": "viability, T/C", "setting": "second compound 1 µM, first compound 1 µM", "result": 89.6, "unit": "%"}, {"measurement": "viability, T/C", "setting": "second compound 1 µM, first compound 3.16 µM", "result": 102, "unit": "%"}, {"measurement": "viability, T/C", "setting": "second compound 1 µM, first compound 10 µM", "result": 94.5, "unit": "%"}, {"measurement": "viability, T/C", "setting": "second compound 3.16 µM, first compound 0.0316 µM", "result": 86.6, "unit": "%"}, {"measurement": "viability, T/C", "setting": "second compound 3.16 µM, first compound 0.1 µM", "result": 84.1, "unit": "%"}, {"measurement": "viability, T/C", "setting": "second compound 3.16 µM, first compound 0.316 µM", "result": 90.2, "unit": "%"}, {"measurement": "viability, T/C", "setting": "second compound 3.16 µM, first compound 1 µM", "result": 80.3, "unit": "%"}, {"measurement": "viability, T/C", "setting": "second compound 3.16 µM, first compound 3.16 µM", "result": 95.6, "unit": "%"}, {"measurement": "viability, T/C", "setting": "second compound 3.16 µM, first compound 10 µM", "result": 91.1, "unit": "%"}, {"measurement": "viability, T/C", "setting": "second compound 10 µM, first compound 0.0316 µM", "result": 70.7, "unit": "%"}, {"measurement": "viability, T/C", "setting": "second compound 10 µM, first compound 0.1 µM", "result": 78, "unit": "%"}, {"measurement": "viability, T/C", "setting": "second compound 10 µM, first compound 0.316 µM", "result": 77, "unit": "%"}, {"measurement": "viability, T/C", "setting": "second compound 10 µM, first compound 1 µM", "result": 73.1, "unit": "%"}, {"measurement": "viability, T/C", "setting": "second compound 10 µM, first compound 3.16 µM", "result": 78.1, "unit": "%"}, {"measurement": "viability, T/C", "setting": "second compound 10 µM, first compound 10 µM", "result": 75, "unit": "%"}]}
{"smiles": "CCN1CCN(Cc2ccc(Nc3ncc(F)c(-c4cc(F)c5nc(C)n(C(C)C)c5c4)n3)nc2)CC1", "values": [{"measurement": "viability, T/C", "setting": "compound 0.00316 µM", "result": "108% [middle of 4 runs]"}, {"measurement": "viability, T/C", "setting": "compound 0.01 µM", "result": "99.3% [middle of 4 runs]"}, {"measurement": "viability, T/C", "setting": "compound 0.0316 µM", "result": "106% and 101% (2×) and 97%"}, {"measurement": "viability, T/C", "setting": "compound 0.1 µM", "result": "94.1% [middle of 4 runs]"}, {"measurement": "viability, T/C", "setting": "compound 0.316 µM", "result": "86.5% [middle of 4 runs]"}, {"measurement": "viability, T/C", "setting": "compound 1 µM", "result": "87.5% [middle of 4 runs]"}, {"measurement": "IC50", "setting": "curve of compound", "result": "> 1", "unit": "µM"}]}
